Laboratory results taken from patent US11945816B2, “Inhibitors of EGFR and/or HER2 and methods of use” (Dana-Farber Cancer Institute, Inc., priority 2017, dated 2024).
pEC50: −log10 of the molar value.

What was measured:
Type in all cases: cell-based
Settings in all cases: MTS assay, 72 hours
[1] = biological target: T1, HER2 InsWLV transformed Ba/F3 cells (Homo sapiens, UniProt P04626, INS773WL/M774V); assay: Proliferation inhibition assay, HER2 InsWLV transformed Ba/F3 cells
T1 construct: expressed in transfected cells; host or cells: Ba/F3
Protocol: (§1) Cell growth inhibition can be assessed by MTS assay or by Cell Titer Glo Luminescent Cell viability assay (Promega®). Cells are seeded and grow in culture plates before they are exposed to representative compounds of the application for various duration. The viability of the cells are then assessed. […] The growth curves can be fitted using a nonlinear regression model with sigmoidal dose response.
(§2) Cell growth inhibition was assessed by MTS assay for Ba/F3, DFCI58-229, and DFCI127c cells, or by Cell Titer Glo Luminescent Cell viability assay (Promega®) for DFC1362JC cells, 3000 Ba/F3 cells were seeded for per well in 96-well plates, and were exposed to representative compounds of the application (3.3 nM to 10 μM) for 72 hours. For DFCI58-229, DFCI127c, and DFC1362JC cells, 5000 cells were seeded per well. All experimental points included 6 to 12 wells. […] The growth curves were fitted using a nonlinear regression model with sigmoidal dose response.
(§3) Activities of representative compounds of the present application in inhibiting EGFR and HER2 were tested by MTS assay (for Ba/F3 cell, DFCI58-229 cell, and DFCI127c cells) or by CellTiter-Glot luminescent cell viability assay (for DFCI362JC cells). For assays with Ba/F3 cells, 3000 cells were seeded for per well in 96-well plates and were exposed to indicated compounds with a concentration of 3.3 to 10 μM for 72 hours. For assays with DFCI58-229 cell, DFCI127c cell, or DFCI362JC cell, 5000 cells were seeded per well in 96-well plates and were exposed to indicated compounds with a concentration of 3.3 to 10 μM for 72 hours.

[2] = biological target: T2, EGFR InsH transformed Ba/F3 cells (Homo sapiens, UniProt P00533, DUP773-773); assay: Proliferation inhibition assay, EGFR InsH transformed Ba/F3 cells
T2 construct: expressed in transfected cells; host or cells: Ba/F3
Protocol: as §1, §2, §3

[3] = biological target: T3, EGFR InsSVD (D770_N771insSVD) transformed Ba/F3 cells (Homo sapiens, UniProt P00533, INS770SVD); assay: Proliferation inhibition assay, EGFR InsSVD transformed Ba/F3 cells
T3 construct: expressed in transfected cells; host or cells: Ba/F3
Protocol: as §1, §2, §3

[4] = biological target: T4, wild-type EGFR transformed Ba/F3 cells (Homo sapiens, UniProt P00533); assay: Proliferation inhibition assay, wild-type EGFR transformed Ba/F3 cells
T4 construct: expressed in transfected cells; host or cells: Ba/F3
Protocol: as §1, §2, §3

[5] = biological target: T5, HER2 InsYVMA (A775_G776insYVMA) transformed Ba/F3 cells (Homo sapiens, UniProt P04626, INS775YVMA); assay: Proliferation inhibition assay, HER2 InsYVMA transformed Ba/F3 cells
T5 construct: expressed in transfected cells; host or cells: Ba/F3
Protocol: as §1, §2, §3

[6] = biological target: T6, wild-type HER2 transformed Ba/F3 cells (Homo sapiens, UniProt P04626); assay: Proliferation inhibition assay, wild-type HER2 transformed Ba/F3 cells
T6 construct: expressed in transfected cells; host or cells: Ba/F3
Protocol: as §1, §2, §3

[7] = biological target: T7, EGFR InsGY (D770delinsGY) transformed Ba/F3 cells (Homo sapiens, UniProt P00533, D770Y/INS769G); assay: Proliferation inhibition assay, EGFR InsGY transformed Ba/F3 cells
T7 construct: expressed in transfected cells; host or cells: Ba/F3
Protocol: as §1, §2, §3

T1 sequence (P04626 with tags, fused parts or gaps INS773WL/M774V): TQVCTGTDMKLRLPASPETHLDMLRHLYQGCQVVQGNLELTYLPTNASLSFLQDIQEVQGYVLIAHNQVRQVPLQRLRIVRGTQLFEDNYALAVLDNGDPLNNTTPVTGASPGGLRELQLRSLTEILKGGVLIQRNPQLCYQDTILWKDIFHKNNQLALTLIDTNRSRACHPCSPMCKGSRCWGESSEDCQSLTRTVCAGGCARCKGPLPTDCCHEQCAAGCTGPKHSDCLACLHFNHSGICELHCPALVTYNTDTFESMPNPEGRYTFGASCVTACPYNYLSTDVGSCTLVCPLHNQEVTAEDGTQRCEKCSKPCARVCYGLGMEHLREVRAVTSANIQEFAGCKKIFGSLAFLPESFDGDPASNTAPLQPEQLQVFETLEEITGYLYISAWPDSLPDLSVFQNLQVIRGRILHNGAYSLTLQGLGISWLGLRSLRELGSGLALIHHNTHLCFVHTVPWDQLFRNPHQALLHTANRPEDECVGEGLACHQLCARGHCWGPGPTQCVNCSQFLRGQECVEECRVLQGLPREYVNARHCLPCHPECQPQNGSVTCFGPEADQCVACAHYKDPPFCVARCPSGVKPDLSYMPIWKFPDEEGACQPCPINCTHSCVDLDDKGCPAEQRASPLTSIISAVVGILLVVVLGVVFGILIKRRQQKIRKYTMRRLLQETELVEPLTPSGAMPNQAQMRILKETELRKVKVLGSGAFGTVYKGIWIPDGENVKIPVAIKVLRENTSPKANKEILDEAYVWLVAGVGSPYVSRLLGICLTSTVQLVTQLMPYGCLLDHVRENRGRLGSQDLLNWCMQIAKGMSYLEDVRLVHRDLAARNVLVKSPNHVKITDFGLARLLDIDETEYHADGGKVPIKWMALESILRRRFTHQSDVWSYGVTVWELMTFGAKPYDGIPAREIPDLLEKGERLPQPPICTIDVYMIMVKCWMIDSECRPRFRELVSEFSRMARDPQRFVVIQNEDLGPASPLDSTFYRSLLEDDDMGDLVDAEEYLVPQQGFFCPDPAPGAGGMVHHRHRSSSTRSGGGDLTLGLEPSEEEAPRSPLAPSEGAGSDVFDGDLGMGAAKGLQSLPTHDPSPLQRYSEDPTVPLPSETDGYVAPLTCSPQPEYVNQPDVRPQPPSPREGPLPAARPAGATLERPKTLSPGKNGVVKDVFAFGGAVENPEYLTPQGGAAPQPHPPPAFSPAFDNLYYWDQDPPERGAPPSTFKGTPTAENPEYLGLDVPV
T4 sequence (P00533 25-1210): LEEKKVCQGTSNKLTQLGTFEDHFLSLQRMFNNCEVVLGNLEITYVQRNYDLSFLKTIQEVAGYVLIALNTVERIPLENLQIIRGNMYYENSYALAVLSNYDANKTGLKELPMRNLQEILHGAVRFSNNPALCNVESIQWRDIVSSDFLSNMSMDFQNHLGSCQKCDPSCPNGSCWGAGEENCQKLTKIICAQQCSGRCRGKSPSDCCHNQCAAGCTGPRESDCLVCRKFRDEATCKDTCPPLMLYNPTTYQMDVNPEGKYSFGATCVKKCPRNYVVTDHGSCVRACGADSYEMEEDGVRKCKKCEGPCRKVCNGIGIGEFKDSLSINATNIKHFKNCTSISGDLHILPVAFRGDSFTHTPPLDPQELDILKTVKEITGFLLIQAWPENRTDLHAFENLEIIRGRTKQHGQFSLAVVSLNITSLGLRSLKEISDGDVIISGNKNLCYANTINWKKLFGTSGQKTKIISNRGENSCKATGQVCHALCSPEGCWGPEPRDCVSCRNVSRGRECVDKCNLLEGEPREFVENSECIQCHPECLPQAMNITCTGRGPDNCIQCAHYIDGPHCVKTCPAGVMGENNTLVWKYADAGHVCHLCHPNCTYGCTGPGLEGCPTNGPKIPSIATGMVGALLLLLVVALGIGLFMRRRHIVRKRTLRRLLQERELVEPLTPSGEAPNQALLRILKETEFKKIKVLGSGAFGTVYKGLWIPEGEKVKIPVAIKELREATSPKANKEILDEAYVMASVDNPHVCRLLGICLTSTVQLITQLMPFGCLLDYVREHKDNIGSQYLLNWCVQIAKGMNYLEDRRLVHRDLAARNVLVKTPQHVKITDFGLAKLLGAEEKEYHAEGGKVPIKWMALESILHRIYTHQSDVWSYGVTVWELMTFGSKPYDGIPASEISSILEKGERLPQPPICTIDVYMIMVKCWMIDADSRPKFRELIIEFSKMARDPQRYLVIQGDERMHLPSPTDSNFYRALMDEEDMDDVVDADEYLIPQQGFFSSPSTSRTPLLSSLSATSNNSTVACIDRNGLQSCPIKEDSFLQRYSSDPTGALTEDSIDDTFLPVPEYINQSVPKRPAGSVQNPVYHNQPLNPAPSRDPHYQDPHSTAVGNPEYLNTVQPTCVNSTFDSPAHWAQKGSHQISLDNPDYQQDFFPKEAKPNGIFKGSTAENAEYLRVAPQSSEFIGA
T7 sequence (P00533 with tags, fused parts or gaps INS769G/D770Y): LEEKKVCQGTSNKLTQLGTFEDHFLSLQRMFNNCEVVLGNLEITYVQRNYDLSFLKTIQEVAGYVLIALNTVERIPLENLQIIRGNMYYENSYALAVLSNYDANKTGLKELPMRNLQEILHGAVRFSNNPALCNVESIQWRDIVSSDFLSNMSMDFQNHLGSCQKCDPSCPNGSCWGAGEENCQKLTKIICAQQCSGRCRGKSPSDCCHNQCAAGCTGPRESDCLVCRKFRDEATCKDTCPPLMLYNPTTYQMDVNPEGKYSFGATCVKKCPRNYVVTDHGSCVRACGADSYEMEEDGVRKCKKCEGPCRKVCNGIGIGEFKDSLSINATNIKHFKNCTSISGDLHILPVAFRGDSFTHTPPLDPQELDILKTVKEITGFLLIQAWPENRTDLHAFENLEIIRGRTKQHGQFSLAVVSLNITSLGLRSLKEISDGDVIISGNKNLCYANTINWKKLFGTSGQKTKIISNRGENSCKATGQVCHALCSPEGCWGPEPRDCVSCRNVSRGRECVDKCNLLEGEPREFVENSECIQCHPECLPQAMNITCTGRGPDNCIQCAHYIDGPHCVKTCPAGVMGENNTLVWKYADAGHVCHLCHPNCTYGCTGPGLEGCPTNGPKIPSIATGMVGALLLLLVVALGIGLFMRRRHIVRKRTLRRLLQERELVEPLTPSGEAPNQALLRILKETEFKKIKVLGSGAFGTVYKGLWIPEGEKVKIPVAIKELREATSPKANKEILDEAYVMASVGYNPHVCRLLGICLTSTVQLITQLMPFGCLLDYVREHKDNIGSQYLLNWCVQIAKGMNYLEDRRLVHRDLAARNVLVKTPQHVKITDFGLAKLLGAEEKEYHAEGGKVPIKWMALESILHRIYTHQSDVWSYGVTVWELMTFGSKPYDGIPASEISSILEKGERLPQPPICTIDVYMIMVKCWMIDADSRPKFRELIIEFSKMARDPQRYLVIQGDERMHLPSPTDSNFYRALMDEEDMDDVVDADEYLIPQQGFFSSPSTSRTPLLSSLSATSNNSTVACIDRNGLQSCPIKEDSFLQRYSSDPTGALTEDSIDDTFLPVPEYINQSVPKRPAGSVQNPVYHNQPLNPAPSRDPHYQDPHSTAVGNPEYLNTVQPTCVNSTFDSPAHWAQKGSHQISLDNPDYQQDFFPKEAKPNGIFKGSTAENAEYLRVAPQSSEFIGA
T6 sequence (P04626 23-1255): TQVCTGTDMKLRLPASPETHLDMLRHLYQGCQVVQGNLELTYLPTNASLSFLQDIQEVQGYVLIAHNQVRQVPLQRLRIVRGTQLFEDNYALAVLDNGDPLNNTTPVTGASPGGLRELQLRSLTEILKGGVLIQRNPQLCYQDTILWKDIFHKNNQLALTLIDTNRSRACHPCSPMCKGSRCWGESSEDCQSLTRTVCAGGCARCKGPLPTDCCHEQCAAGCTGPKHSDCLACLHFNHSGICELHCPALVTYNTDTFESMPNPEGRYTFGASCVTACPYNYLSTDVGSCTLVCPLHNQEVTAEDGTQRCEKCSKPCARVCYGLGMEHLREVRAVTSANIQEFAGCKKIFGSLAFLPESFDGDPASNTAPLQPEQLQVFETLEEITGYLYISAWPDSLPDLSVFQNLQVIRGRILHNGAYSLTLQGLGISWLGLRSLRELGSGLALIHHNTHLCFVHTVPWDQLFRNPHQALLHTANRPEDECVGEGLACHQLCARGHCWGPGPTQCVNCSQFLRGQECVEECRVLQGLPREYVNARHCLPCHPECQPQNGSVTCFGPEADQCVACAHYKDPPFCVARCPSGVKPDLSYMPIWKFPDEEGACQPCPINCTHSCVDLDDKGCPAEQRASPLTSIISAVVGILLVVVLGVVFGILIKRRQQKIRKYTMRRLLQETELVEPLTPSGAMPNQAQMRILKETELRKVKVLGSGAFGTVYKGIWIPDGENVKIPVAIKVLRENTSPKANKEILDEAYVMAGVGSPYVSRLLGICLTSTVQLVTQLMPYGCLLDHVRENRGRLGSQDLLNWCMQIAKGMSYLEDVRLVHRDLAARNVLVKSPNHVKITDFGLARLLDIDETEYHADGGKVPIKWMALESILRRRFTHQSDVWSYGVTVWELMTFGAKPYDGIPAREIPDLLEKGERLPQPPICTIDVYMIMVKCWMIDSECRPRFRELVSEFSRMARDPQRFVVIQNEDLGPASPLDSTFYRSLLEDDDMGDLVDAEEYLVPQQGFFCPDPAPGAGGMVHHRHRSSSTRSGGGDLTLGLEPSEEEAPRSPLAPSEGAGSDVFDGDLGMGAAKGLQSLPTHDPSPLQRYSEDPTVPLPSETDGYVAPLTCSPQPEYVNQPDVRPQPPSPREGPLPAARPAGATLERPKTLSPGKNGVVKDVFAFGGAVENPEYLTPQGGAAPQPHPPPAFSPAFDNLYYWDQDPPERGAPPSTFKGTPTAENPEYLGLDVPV

| Structure (SMILES) | pEC50 ([1]; Table 10 key) | pEC50 [2] | pEC50 [3] | pEC50 [4] | pEC50 ([5]; Table 10 key) | pEC50 ([6]; Table 10 key) | pEC50 ([1]; Table 9 key) | pEC50 ([5]; Table 9 key) | pEC50 ([6]; Table 9 key) | pEC50 [7] |
| --- | --- | --- | --- | --- | --- | --- | --- | --- | --- | --- |
| C=CC(=O)Nc1cccc(-n2c(=O)c(Oc3cc(F)c(F)cc3F)cc3cnc(Nc4cnn(C)c4)nc32)c1 [Compound 87] | > 6.70 | 6.00 to 6.22 | > 6.70 | > 6.70 | > 6.70 | > 6.70 |  |  |  |  |
| C=CC(=O)Nc1cc(Nc2ncc3cc(Nc4ccc(F)cc4F)c(=O)n(C)c3n2)c(OC)cc1OCCN(C)C [Compound 142] |  | 6.00 to 6.22 | > 6.70 | > 6.70 |  |  | 6.60 to 7.00 | > 7.00 | > 7.00 | > 6.70 |
| CCC(=O)Nc1cc(Nc2ncc3cc(Oc4ccc(F)cc4F)c(=O)n(C)c3n2)c(OC)cc1N(C)CCN(C)C [Compound 111] | < 6.00 | < 6.00 | < 6.00 | < 6.00 | < 6.00 | < 6.00 |  |  |  | < 6.00 |
| C=CC(=O)Nc1cc(Nc2ncc3cc(Oc4ccc(F)cc4F)c(N)nc3n2)c(OC)cc1N(C)CCN(C)C [Compound 140] |  | 6.00 to 6.22 | 6.22 to 6.70 | > 6.70 |  |  | 6.30 to 6.60 | > 7.00 | > 7.00 | 6.22 to 6.70 |
| C=CC(=O)Nc1cc(Nc2ncc3cc(Oc4ccc(F)cc4)c(=O)n(C)c3n2)ccc1N(C)CCN(C)C [Compound 129] | 6.00 to 6.22 | < 6.00 | 6.22 to 6.70 | > 6.70 | > 6.70 | > 6.70 |  |  |  |  |
| C=CC(=O)N1C[C@H](Cn2c(=O)c(Oc3ccc(F)cc3F)cc3cnc(NC(C)=O)nc32)[C@@H](OC)C1 [Compound 112] |  |  | > 6.70 | > 6.70 | 6.22 to 6.70 | 6.22 to 6.70 |  |  |  |  |
| C=CC(=O)Nc1cc(Nc2ncc3cc(Oc4ccc(F)cc4F)c(=O)n(CC(F)(F)F)c3n2)c(OC)cc1N(C)CCN(C)C [Compound 85] | > 6.70 | > 6.70 | > 6.70 | > 6.70 | > 6.70 | > 6.70 |  |  |  | > 6.70 |
| C=CC(=O)Nc1cc(Nc2ncc3cc(Oc4ccc(C)cc4)c(=O)n(C)c3n2)c(OC)cc1N(C)CCN(C)C [Compound 131] | > 6.70 | 6.22 to 6.70 | > 6.70 | > 6.70 | > 6.70 | > 6.70 |  |  |  |  |
| C=CC(=O)Nc1cc(Nc2ncc3cc(Oc4ccc(F)cc4F)c(=O)n(C)c3n2)c(OC)cc1C1CCNCC1 [Compound 127] |  |  | < 6.00 | < 6.00 | < 6.00 | < 6.00 |  |  |  |  |
| C=CC(=O)Nc1cccc(-n2c(=O)c(Oc3ccc(F)cc3F)cc3cnc(N)nc32)c1 [Compound 106] | > 6.70 | 6.22 to 6.70 | > 6.70 | > 6.70 | > 6.70 | > 6.70 |  |  |  | > 6.70 |
| C=CC(=O)Nc1cc(Nc2ncc3cc(Oc4cc(F)c(F)cc4F)c(=O)n(C)c3n2)c(OC)cc1N(C)CCN(C)C [Compound 135] | > 6.70 | 6.22 to 6.70 | > 6.70 | > 6.70 | > 6.70 | > 6.70 |  |  |  | > 6.70 |
| C=CC(=O)Nc1ccc(OC)c(Nc2ncc3cc(Oc4ccc(F)cc4F)c(=O)n(CCN(C)C)c3n2)c1 [Compound 94] | 6.22 to 6.70 | < 6.00 | 6.22 to 6.70 | > 6.70 | > 6.70 | > 6.70 |  |  |  | > 6.70 |
| C=CC(=O)Nc1cc(Nc2ncc3cc(Oc4ccc(F)c(Cl)c4)c(=O)n(C)c3n2)c(OC)cc1N(C)CCN(C)C [Compound 137] | > 6.70 |  |  |  | > 6.70 | > 6.70 |  |  |  |  |
| C=CC(=O)Nc1cccc(-n2c(=O)c(Oc3ccc(F)c(Cl)c3)cc3cnc(Nc4cnn(C)c4)nc32)c1 [Compound 88] | 6.22 to 6.70 | 6.22 to 6.70 | > 6.70 | > 6.70 | > 6.70 | > 6.70 |  |  |  |  |
| C=CC(=O)N1C[C@H](Cn2c(=O)c(Oc3ccc(F)cc3F)cc3cnc(Nc4cnn(C)c4)nc32)[C@@H](OC)C1 [Compound 102] | > 6.70 | 6.22 to 6.70 | > 6.70 | > 6.70 | > 6.70 | > 6.70 |  |  |  | > 6.70 |
| C=CC(=O)Nc1cc(Nc2ncc3cc(Nc4ccc(F)cc4F)c(=O)n(C)c3n2)c(OC)cc1N(C)CCN(C)C [Compound 141] |  | 6.22 to 6.70 | > 6.70 | > 6.70 |  |  | > 7.00 | > 7.00 | > 7.00 | > 6.70 |
| C=CC(=O)Nc1cc(Nc2ncc3cc(Oc4ccc(F)cc4)c(=O)n(C)c3n2)c(OC)cc1N(C)CCN(C)C [Compound 130] | > 6.70 | > 6.70 | > 6.70 | > 6.70 | > 6.70 | > 6.70 |  |  |  |  |
| C=CC(=O)Nc1cc(Nc2ncc3cc(Oc4ccc(F)cc4Cl)c(=O)n(C)c3n2)c(OC)cc1N(C)CCN(C)C [Compound 134] | > 6.70 | 6.22 to 6.70 | > 6.70 | > 6.70 | > 6.70 | > 6.70 |  |  |  | > 6.70 |
| C=CC(=O)Nc1cc(Nc2ncc3cc(Oc4ccc(F)cc4F)c(=O)n(C)c3n2)ccc1N(C)CCN(C)C [Compound 116] | > 6.70 | > 6.70 | > 6.70 | > 6.70 | > 6.70 | > 6.70 |  |  |  |  |
| C=CC(=O)Nc1cc(Nc2ncc3cc(Oc4ccc(F)cc4F)c(=O)n(C)c3n2)cnc1N(C)CCN(C)C [Compound 113] | > 6.70 | 6.00 to 6.22 | > 6.70 | > 6.70 | > 6.70 | > 6.70 |  |  |  | > 6.70 |
| C=CC(=O)N1C[C@H](Cn2c(=O)c(Oc3ccc(F)cc3F)cc3cnc(N)nc32)[C@@H](OC)C1 [Compound 110] |  |  | > 6.70 | 6.22 to 6.70 | > 6.70 | > 6.70 |  |  |  |  |
| C=CC(=O)Nc1cccc(-n2c(=O)c(Oc3ccc(Cl)cc3F)cc3cnc(Nc4cnn(C)c4)nc32)c1 [Compound 89] | > 6.70 | 6.22 to 6.70 | > 6.70 | > 6.70 | > 6.70 | > 6.70 |  |  |  |  |
| CC#CC(=O)Nc1cc(Nc2ncc3cc(Oc4ccc(F)cc4F)c(=O)n(C)c3n2)c(OC)cc1N(C)CCN(C)C [Compound 125] | 6.22 to 6.70 | 6.00 to 6.22 | > 6.70 | > 6.70 | > 6.70 | > 6.70 |  |  |  | > 6.70 |
| C=CC(=O)Nc1cc(Nc2ncc3cc(Oc4ccc(F)cc4F)c(=O)n(C)c3n2)c(OC)cc1C1CCN(C)CC1 [Compound 128] |  |  | 6.00 to 6.22 | 6.22 to 6.70 | > 6.70 | 6.22 to 6.70 |  |  |  |  |
| C=CC(=O)Nc1cc(Nc2ncc3cc(Oc4ccc(F)cc4F)c(=O)n(C)c3n2)ccc1CCCN(C)C [Compound 117] | 6.22 to 6.70 | < 6.00 | 6.22 to 6.70 | > 6.70 | > 6.70 | > 6.70 |  |  |  |  |
| C=CC(=O)Nc1cc(Nc2ncc3cc(Oc4ccccc4)c(=O)n(C)c3n2)c(OC)cc1N(C)CCN(C)C [Compound 132] | > 6.70 | > 6.70 | > 6.70 | > 6.70 | > 6.70 | > 6.70 |  |  |  |  |
